For test [1], the system named is Escherichia coli (CMCC(B)44102-2-6). The test can be described thus: microbe, parasite or virus in culture. The settings on record: 10^6 CFU/ml, 96-well plate, overnight 37 °C, visual clarity, performed at least three times. The text has this:
(§1) Viba 11, originally discovered in Viola baoshanensis[39] and found in other plants such as Viola tricolor[40], Viola betonicifolia, and Viola philippica, lacks biological activity studies. […] All purified cyclotides underwent antibacterial testing against Gram-positive bacterium Staphylococcus aureus (CMCC(B)26003-2-10) and Bacillus subtilis (CMCC(B)63501), Gram-negative bacteria, including Acinetobacter baumannii (ATCC19606), Escherichia coli (CMCC(B)44102-2-6), and Salmonella paratyphi (CMCC(B)50094-2-9).
(§2) Bacterial fluids are cultured overnight at 37 °C. The next day, the bacterial liquids are diluted to a concentration of 10^6 CFU/ml. Prepare different concentrations of cyclotide drugs and kanamycin sulfate in advance, and sequentially add the drugs and bacterial liquid to the 96-well plate. Negative controls consisted of sterile water and bacterial liquid. The plate is cultured overnight at 37 °C and observe whether the solution remains clear to see the growth of the bacterial suspension. Each test was performed three times at least.

The test system of test [2] is Acinetobacter baumannii (ATCC19606). Nature of the test: microbe, parasite or virus in culture. The settings on record: Acinetobacter baumannii ATCC19606; 10^6 CFU/ml, 96-well plate, overnight 37 °C, visual clarity; performed at least three times.
Source text: as §1, §2

In test [3] the test system is Bacillus subtilis (CMCC(B)63501). Nature of the test: microbe, parasite or virus in culture. The settings on record: 10^6 CFU/ml, 96-well plate, overnight 37 °C, visual clarity, performed at least three times.
Source text: as §1, §2

For a further test, the system named is Bacillus subtilis. The test can be described thus: DAPI/PI staining, laser scanning confocal microscopy (membrane integrity). Format: cell-based. To be noted: B. subtilis 10^8 CFU/mL, 37 °C, 1-2 h, DAPI and PI staining. From the text:
Many naturally occurring antimicrobial peptides (AMPs) are cationic. Cationic AMPs (CAMPs) exert bactericidal activity by mechanisms featuring cell membrane disruption. Cyclotides are likely to kill germ by disrupting their membranes. Laser scanning confocal microscopy can be used to study the ability of cyclotides to destroy bacterial membrane. 4′, 6-diaminyl-2-phenylindole (DAPI) is a blue fluorescent dye that can penetrate membranes and stain both living and dead strains, while propyl iodide (PI) stains only strains with damaged membranes, glowing red[46],[47]. In this study, the bracelet cyclotide family members viba 11 and vija 10 interacted with A. baumannii and B. subtilis in their logarithmic phase at 37 °C for 1–2 h. After the addition of DAPI and PI fluorescent dyes, the samples were incubated in a dark room at room temperature for 15 min for staining. The stained samples were then centrifuged to concentrate, resuspended, and applied to a slide for observation using a confocal laser scanning microscope (FLUOVIEW FV3000, Olympus). […] With increasing concentration, the blue and red fluorescence gradually overlapped. […] However, the magnification is not sufficient to detect further details of membrane disruption. Therefore, further exploration can be conducted using methods such as scanning electron microscopy (SEM) to study the antibacterial mechanism in depth.
Figure 5 Study on the antimicrobial mechanism of cyclotides. (A) Incubation of Acinetobacter baumannii with sterile water, 1 MIC and 4 MIC of viba 11. (B) Incubation of Bacillus subtilis with sterile water, 1 MIC and 4 MIC of vija 10. All samples were stained with DAPI and PI. The negative control group PI is not stained and the membrane is intact, while the membrane treated with cyclotides was stained and the membrane are destroyed. Scale bar: 20 μm. Magnification: 600×.
Take 50 μL of A. baumannii and B. subtilis (10^8 CFU/mL), and add 50 μL of sterile water, different concentrations of cyclotides viba 11 and vija 10 to achieve final concentrations of 1 MIC and 4 MIC respectively. Incubate at 37 °C for 1–2 h. Subsequently, add 4,6-diamino-2-phenylindole (DAPI) and propidium iodide (PI) dyes at 20 μg/mL each, and incubate in the dark for 15 min. Centrifuge at 5000 rpm for 3 min to concentrate, discard the majority of the supernatant, and resuspend the bacteria in the remaining small volume of liquid. Mix well and take 10 μL of the stained sample onto a glass slide, gently place a cover slip on top with forceps, avoiding the formation of bubbles during the pressing process. After sealing the cover slip, check with a laser confocal microscope, and the observation was conducted using an objective lens with the maximum magnification of 60 × . […]

Test [4] has as its system Staphylococcus aureus (CMCC(B)26003-2-10). Nature of the test: MIC, broth dilution in 96-well plate. It is filed as cell-based. To be noted: 10^6 CFU/ml, overnight 37 °C, visual clarity, performed at least three times.
Source text: (§3) Cycloviolacin O2, known for its antimicrobial, hemolytic, and insecticidal activities, has been more extensively investigated[4],[20],[36]–[38]. Viba 11, originally discovered in Viola baoshanensis[39] and found in other plants such as Viola tricolor[40], Viola betonicifolia, and Viola philippica, lacks biological activity studies. These two cyclotides and vija 10 are high in content and easy to purify, and cycloviolacin O2 can also be used as a positive control to conduct activity study. In addition, few vija12 and 31 were extracted for antibacterial experiments. All purified cyclotides underwent antibacterial testing against Gram-positive bacterium Staphylococcus aureus (CMCC(B)26003-2-10) and Bacillus subtilis (CMCC(B)63501), Gram-negative bacteria, including Acinetobacter baumannii (ATCC19606), Escherichia coli (CMCC(B)44102-2-6), and Salmonella paratyphi (CMCC(B)50094-2-9). […] In addition, the MICs of viba 11, cycloviolacin O2 and vija 10 against B. subtilis were respectively 5.4 μM, 2.1 μM and 14.3 μM (Table 1). […] Therefore, it is hypothesized that the lower antimicrobial activity of vija 10 may be attributed to the presence of only one Lys residue in loop 5.
as §2
(Broth dilution looks for growth in wells or tubes with falling amounts of substance.)

For test [5], the system named is Salmonella paratyphi (CMCC(B)50094-2-9). Nature of the test: MIC, broth dilution in 96-well plate. Format: cell-based. The settings on record: 10^6 CFU/ml, overnight 37 °C, visual clarity, performed at least three times.
Source text: as §3, §2

Molecules are shown by their SMILES. ≈ marks a conversion by molar mass, not a printed value. Residues, ends and D or L forms follow the SMILES beside them.

Turning to `CC[C@H](C)[C@@H]1NC(=O)[C@@H]2CSSC[C@@H]3NC(=O)[C@H](C(C)C)NC(=O)[C@H](CCCCN)NC(=O)[C@H](CO)NC(=O)[C@H](CO)NC(=O)[C@@H]4CSSC[C@H](NC(=O)[C@H](CO)NC(=O)[C@H](CCC(=O)O)NC(=O)CNC(=O)[C@H](CSSC[C@H](NC(=O)CNC(=O)[C@H](CC(C)C)NC(=O)[C@H](CC(C)C)NC(=O)[C@H](C)NC(=O)[C@H](CO)NC1=O)C(=O)N[C@@H](CO)C(=O)N4)NC(=O)[C@@H]1CCCN1C(=O)[C@H]([C@@H](C)CC)NC(=O)[C@H](CO)NC(=O)CNC(=O)[C@H](CC(N)=O)NC(=O)[C@H](CCCCN)NC(=O)[C@H](Cc1ccc(O)cc1)NC3=O)C(=O)N[C@@H](C(C)C)C(=O)N[C@@H](Cc1ccccc1)C(=O)N[C@@H]([C@@H](C)CC)C(=O)N1CCC[C@H]1C(=O)N2` [vija 10] (HELM PEPTIDE1{A.L.L.G.C.S.C.S.S.K.V.C.Y.K.N.G.S.I.P.C.G.E.S.C.V.F.I.P.C.I.S}$PEPTIDE1,PEPTIDE1,5:R3-20:R3|PEPTIDE1,PEPTIDE1,7:R3-24:R3|PEPTIDE1,PEPTIDE1,12:R3-29:R3|PEPTIDE1,PEPTIDE1,1:R1-31:R2$$$V2.0), the MIC in test [1] is greater than 28.5 µM; in test [2], 57 µM (≈ 179 µg/mL); in test [3], 14.3 µM (≈ 45 µg/mL); in test [4], greater than 28.5 µM; in test [5], greater than 28.5 µM. The “membrane integrity (PI red fluorescence)” value is on record as “caused damage to the membrane integrity” in the test with Bacillus subtilis (1 MIC) and “majority of the cell membranes were ruptured” in the test on Bacillus subtilis (4 MIC).

For the origin of these results see article PMC11056381, “Characterization and evaluation of cytotoxic and antimicrobial activities of cyclotides from Viola japonica” (Scientific Reports, 2024).
